# Data as given in US9181303B2, “Treatment of bacterial infections with cyclic antimicrobial peptides” (N[…], priority 2005, dated 2015).
# “And” between values parts separate entries of the source, which are not always exact repeats. Equal entries are not always repeated.
# Key:
# C. neoformans = assay: Broth dilution antifungal susceptibility testing of yeasts (M27-A), C. neoformans; assay type: cell-based, Cryptococcus neoformans
# Protocol: (§1) Broth Dilution Antifungal Susceptibility Testing
# (§2) The sensitivity of relevant fungal strains to the cyclized peptides was determined using Clinical Laboratory Standard Institute (CLSI; formerly NCCLS) Approved Standards. Fungal susceptibility was tested using “Reference Method for Broth Dilution Antifungal Susceptibility Testing of Filamentous Fungi; Approved Standard M38-P”, and yeast susceptibility was tested using “Reference Method for Broth Dilution Antifungal Susceptibility Testing of Yeasts; Approved Standard—Second Edition M27-A”.
# C. neoformans susceptibility to peptides 4 and 6-8 was tested using “Reference Method for Broth Dilution Antifungal Susceptibility Testing of Yeasts; Approved Standard—Second Edition M27-A”.
# T. interdigitale = assay: Broth dilution antifungal susceptibility testing, T. interdigitale; assay type: cell-based, Trichophyton interdigitale; conditions: for Activity towards T. interdigitale: in words
# Protocol: as §1, §2
# T. interdigitale susceptibility to peptides 2-8 was tested. Peptides 2, 4 and 6 were active towards T. interdigitale.
# T. rubrum = assay: Broth dilution antifungal susceptibility testing (CLSI M38-P), T. rubrum; assay type: cell-based, Trichophyton rubrum; conditions: for MIC versus T. rubrum: T. rubrum cultures
# Protocol: as §1, §2
# T. rubrum susceptibility to peptides 1-8 was tested.
# A. niger = assay: Broth dilution antifungal susceptibility testing, A. niger; assay type: cell-based; conditions: A. niger NCPF2022
# Protocol: as §1, §2
# A. terreus = assay: Broth dilution antifungal susceptibility testing, A. terreus; assay type: cell-based; conditions: A. terreus NCPF2729
# Protocol: as §1, §2
# S. epidermidis = assay: Broth dilution antibacterial susceptibility testing, S. epidermidis; assay type: cell-based, Staphylococcus epidermidis; conditions: S. epidermidis ATCC12228
# Protocol: (§3) Broth Dilution Antibacterial Susceptibility Testing
# (§4) The sensitivity of relevant bacterial strains to the cyclized peptides was determined using Clinical Laboratory Standard Institute (CLSI; formerly NCCLS) Approved Standards. Bacterial susceptibility was tested using “Methods for Dilution Antimicrobial Susceptibility Tests for Bacteria That Grow […]; Approved Standard—Seventh Edition M7-A7”
# Ps. aeruginosa = assay: Broth dilution antibacterial susceptibility testing, Ps. aeruginosa; assay type: cell-based
# Protocol: as §3, §4
# S. brevicaulis = assay: Broth dilution antifungal susceptibility testing, S. brevicaulis; assay type: cell-based, Scopulariopsis brevicaulis
# Protocol: as §1, §2
# Fusarium spp = assay: Broth dilution antifungal susceptibility testing, Fusarium spp; assay type: cell-based
# Protocol: as §1, §2
# M. furfur = assay: Broth dilution antifungal susceptibility testing, M. furfur; assay type: cell-based, Malassezia furfur; conditions: M. furfur DSM6170
# Protocol: as §1, §2
# C. albicans = assay: Broth dilution antifungal susceptibility testing of yeasts, C. albicans; assay type: cell-based
# Protocol: as §1, §2
# B. cepacia = assay: Broth dilution antibacterial susceptibility testing, B. cepacia; assay type: cell-based, Burkholderia cepacia; conditions: B. cepacia ATCC25609
# Protocol: as §3, §4
# E. coli = assay: Broth dilution antibacterial susceptibility testing (CLSI M7-A7), E. coli; assay type: cell-based; conditions: for MIC versus E. coli: growth over 16 hours at 37° C.
# Protocol: as §3, §4
# (§5) Cultures of E. coli and Staphylococcus aureus were exposed to Peptide 1 and the MIC after growth over the following 16 hours at 37° C. was 1 mM for both organisms (Table 2).
# C. difficile = assay: Broth dilution antibacterial susceptibility testing, C. difficile; assay type: cell-based, Clostridium difficile; conditions: C. difficile NCTC11209
# Protocol: as §3, §4
# C. parapsilosis = assay: Broth dilution antifungal susceptibility testing of yeasts, C. parapsilosis; assay type: cell-based
# Protocol: as §1, §2
# Fusarium oxysporum = assay: Broth dilution antifungal susceptibility testing, Fusarium oxysporum; assay type: cell-based; conditions: Fusarium oxysporum NCPF2722
# Protocol: as §1, §2
# T. mentagrophytes = assay: Broth dilution antifungal susceptibility testing, T. mentagrophytes; assay type: cell-based, Trichophyton mentagrophytes
# Protocol: as §1, §2
# P. acnes = assay: Broth dilution antibacterial susceptibility testing, P. acnes; assay type: cell-based; conditions: P. acnes DSMZ1897
# Protocol: as §3, §4
# C. krusei = assay: Broth dilution antifungal susceptibility testing of yeasts, C. krusei; assay type: cell-based
# Protocol: as §1, §2
# S. aureus = assay: Broth dilution antibacterial susceptibility testing (CLSI M7-A7), S. aureus; assay type: cell-based, Staphylococcus aureus
# Protocol: as §3, §4, §5
substance,measurement,setting,value
Cyclic-DR-DR-DR-DR-DR-DR-DR-G [Peptide 6],MIC versus C. neoformans,C. neoformans,500 µM
same,MIC versus T. interdigitale,T. interdigitale,250 µM
same,Activity towards T. interdigitale,T. interdigitale,active
same,MIC versus T. rubrum,T. rubrum,1000 µM
Cyclic-R-R-R-R-R-R-R [Peptide 2],MIC,A. niger,500 µM
same,MIC,A. terreus,>2000 µM
same,MIC,S. epidermidis,25 µM
same,MIC,"Ps. aeruginosa; Ps. aeruginosa ATCC27853 (first entry, r42)",>1900 µM
same,MIC,"Ps. aeruginosa; Ps. aeruginosa ATCC27853 (second entry, r44)",>2000 µM
same,MIC,Ps. aeruginosa; Ps. aeruginosa DSM50071,>2000 µM
same,MIC versus T. interdigitale,T. interdigitale,<125 µM
same,MIC,T. interdigitale; T. interdigitale NCPF335,<125 µM
same,Activity towards T. interdigitale,T. interdigitale,active
same,MIC,S. brevicaulis; S. brevicaulis DM2006 1025,500 µM
same,MIC,S. brevicaulis; S. brevicaulis NCPF2177,500 µM
same,MIC,Fusarium spp; Fusarium spp DM2006 294,>2000 µM
same,MIC,Fusarium spp; Fusarium spp DM2006 495,>2000 µM
same,MIC,Fusarium spp; Fusarium spp DM2006 1026,>2000 µM
same,MIC,M. furfur,0.031 mM
same,MIC,T. rubrum; T. rubrum 7 Clinical Isolates,500 to 1000 µM
same,MIC,T. rubrum; T. rubrum NCPF118,250 µM
same,MIC versus T. rubrum,T. rubrum,250 µM and 200 µM
same,MIC,C. albicans; C. albicans AM2003-020,>2000 µM
same,MIC,C. albicans; C. albicans ATCC24433,>2000 µM
same,MIC,C. albicans; C. albicans ATCC90028,>2000 µM
same,MIC,C. albicans; C. albicans IHEM3742,>2000 µM
same,MIC,C. albicans; C. albicans NCTC3179,>2000 µM
same,MIC,C. albicans; C. albicans s20122.073,>2000 µM
same,MIC,B. cepacia,>1900 µM
same,MIC,E. coli; E. coli NCTC12900,100 µM
same,MIC,"E. coli; E. coli, No strain designation",100 µM
same,MIC versus E. coli,E. coli,100 µM
same,MIC,C. difficile,>2000 µM
same,MIC,C. parapsilosis; C. parapsilosis ATCC22019,250 µM
same,MIC,C. parapsilosis; C. parapsilosis ATCC90018,1000 µM
same,MIC,Fusarium oxysporum,>2000 µM
same,MIC,T. mentagrophytes; T. mentagrophytes DM2006 978,500 µM
same,MIC,T. mentagrophytes; T. mentagrophytes DM2006 1023,500 µM
same,MIC,P. acnes,125 µM
same,MIC,C. krusei; C. krusei ATCC6258,125 µM
same,MIC,C. krusei; C. krusei NCPT3953,128 to 256 µM
same,MIC,S. aureus; S. aureus 16 Clinical Isolates,>3800 µM
same,MIC,"S. aureus; S. aureus ANS46, MRSA",950 µM
same,MIC,S. aureus; S. aureus ATCC12598,950 µM
same,MIC,S. aureus; S. aureus ATCC25923,>100 µM
same,MIC,"S. aureus; S. aureus Col, MRSA",950 µM
same,MIC,"S. aureus; S. aureus MW2, MRSA",950 µM
same,MIC,"S. aureus; S. aureus N315, MRSA",950 µM
same,MIC,"S. aureus; S. aureus NCTC6571, MSSA",>1900 µM
same,MIC,S. aureus; S. aureus NCTC8325,>1900 µM
same,MIC,"S. aureus; S. aureus NCTC10442, MRSA",250 µM
same,MIC,S. aureus; S. aureus NCTC10788,>1900 µM
same,MIC,"S. aureus; S. aureus, No strain designation",250 µM
Cyclic-O-O-O-O-O-O-O-G [Peptide 5],MIC versus T. interdigitale,T. interdigitale,>4000 µM
same,MIC versus T. rubrum,T. rubrum,4000 µM
Cyclic-DO-DO-DO-DO-DO-DO-DO-G [Peptide 7],MIC versus C. neoformans,C. neoformans,2000 µM
same,MIC versus T. interdigitale,T. interdigitale,>4000 µM
same,MIC versus T. rubrum,T. rubrum,>4000 µM
Cyclic-K-K-K-K-K-K-K-G [Peptide 3],MIC versus T. interdigitale,T. interdigitale,>4000 µM
same,MIC versus T. rubrum,T. rubrum,4000 µM
Cyclic-DK-DK-DK-DK-DK-DK-DK-G [Peptide 8],MIC versus C. neoformans,C. neoformans,500 µM
same,MIC versus T. interdigitale,T. interdigitale,>4000 µM
same,MIC versus T. rubrum,T. rubrum,> 4000 µM
Cyclic-R-R-R-R-R-R-R-G [Peptide 4],MIC versus C. neoformans,C. neoformans,1000 µM
same,MIC versus T. interdigitale,T. interdigitale,500 µM
same,Activity towards T. interdigitale,T. interdigitale,active
same,MIC versus T. rubrum,T. rubrum,2000 µM
Cyclic-K-K-K-K-K-K-K [Peptide 1],MIC versus T. rubrum,T. rubrum,100 µM
same,MIC versus E. coli,E. coli,1000 µM
same,MIC versus S. aureus,S. aureus; growth over 16 hours at 37° C.,1000 µM
